Reference: article PMC9321663, “The DevTox Germ Layer Reporter Platform: An Assay Adaptation of the Human Pluripotent Stem Cell Test” (Toxics, 2022)
Structures can show the parent of a compound that is named as a salt. Where two headings read alike, the source gives them in different places.

Tests used:
[1] = system: SOX2 (ectoderm and pluripotency marker) in RUES2-GLR cells; assay: DevTox GLR-Endo assay: increase in percent SOX2-positive cells (AEID 3095, Sox2_up); conditions: for AC50 / Emax: Homo sapiens; for AC50: read-out: ga (winning model); for Emax: read-out: tp (winning model); for MAX_MEAN: tcpl plot AEID3095, maximum mean response; for MAX_MED: tcpl plot AEID3095, maximum median response;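 for all read-outs here: cells exposed to test chemicals for 48 h in total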
Description: RUES2-GLR cells were seeded 24 h prior to differentiation initiation into vitronectin-coated 384-well CellCarrier Ultra plates (10.6 mm^2/well) (Perkin Elmer, Waltham, MA, USA). Vitronectin (0.5 µg/cm^2)-coated plates were prepared and stored at 4 °C, wrapped in parafilm, for less than seven days and incubated at room temperature for one hour prior to cell seeding. […] Cells were dispensed into 20 µL coating solution using a Certus FLEX Micro Dispenser (Fritz Gyger, Gwatt, Switzerland) with a 0.45 µm valve to a final volume of 100 µL and density of 2.8 × 10^3 cells per well.
Following a 24 h post-seeding incubation period (Time = 0 h) (Figure 3A), directed endoderm differentiation was initiated with the PSC Definitive Endoderm Induction kit (Gibco, Waltham, MA, USA). […] A target dilution series (0.002–200 µM) was generated by dispensing variable nanoliter volumes of test chemical and backfilling with a complementary volume of DMSO using Echo Cherry Pick software (v.1.6.2). Wells were backfilled with 50 µL of induction medium using a Certus FLEX Micro Dispenser with 0.45 µm valves. Test compound treatment plates were mixed on a Multi-Microplate Genie mixer at 700 rpm for 10 min and subsequently incubated for two hours in a humidified atmosphere at 37 °C with 5% CO2. Each chemical treatment (0 h–Medium A; 24 h–Medium B) were prepared the day of treatment. At 0 h, cell culture medium was aspirated from the assay plate at a rate of 1 µL/s and 40 µL of Medium A ± test chemical applied using a CyBio FeliX automated liquid handler (Analytik Jena, Jena, Germany). At 24 h, conditioned cell culture medium was aspirated and 40 µL of Medium B ± test chemical was applied. At 48 h, cells were prepared for high-content image acquisition by fixation and nuclear staining. The total test chemical incubation period was 48 h. For fixation, a 4% paraformaldehyde (PFA) solution was achieved by adding 40 µL of 8% PFA directly to cell culture medium using a CyBio FeliX liquid handler. […] Following an additional 30 min incubation period at room temperature, staining solution was aspirated, 50 µL of DPBS was added, and plate sealed with MicroAmp Optical Adhesive Film (Applied Biosystems, Waltham, MA, USA).
Images were acquired within 12 h post-fixation using an Opera Phenix High-Content Screening System (Perkin Elmer, Waltham, MA, USA). […] Cell identification and mean biomarker fluorescent intensities were calculated using Harmony image analysis software (Perkin Elmer, Waltham, MA, USA). Cell nuclei were identified using the object classifying algorithm C of the software with border objects excluded using the “Remove Border Objects” feature. Mean cell biomarker intensity statistics were gathered from each object and exported for further analysis using a custom script in Python version 3.7.4 [61] […] For each plate, pluripotent-negative control wells were used to establish baseline intensity values and a cutoff threshold for determining SOX17 and BRA biomarker-positive cells. Endoderm differentiated positive control wells were used to establish baseline intensity values and a cutoff threshold for SOX2-positive cells. Cells with a mean intensity five times the baseline median absolute deviation (5*bmad) above the median cell intensity for plate-based control population technical replicates were considered positive. Well-based cell counts, reflected by the sum of total counted objects from all fields, were used to calculate the percent responders for each respective biomarker and evaluate cytotoxicity. Well-level results were exported for data modeling in the ToxCast Pipeline.
The ToxCast Pipeline R package (tcpl v.2.0.2) was used to normalize, fit, and qualify concentration-response screening data [63].

[2] = system: SOX17 (endoderm marker) in RUES2-GLR cells; assay: DevTox GLR-Endo assay: increase in percent SOX17-positive cells (AEID 3093, Sox17_up); assay type: cell-based, human; conditions: for Emax: Homo sapiens; for HIT−CALL: tcpl plot AEID3093, COFF 20.3
Description: (§1) The total test chemical incubation period was 48 h.
(§2) (Supplementary Materials).

[3] = system: RUES2-GLR cells; assay: DevTox GLR-Endo assay: decrease in total cell count, cytotoxicity (AEID 3098, CellCount_dn); conditions: for Emax: Homo sapiens, read-out: Cell Count % Max Inhibition
[4] = cited from earlier work; for Classification: developmental toxicant classification (Teratogen / Non-Teratogen) of reference and training chemicals, ref DOI per chemical: 10.1093/toxsci/kft239, 10.1093/toxsci/kfaa014, 10.1177/026119290203000204, 10.1038/s41598-020-59542-x; for DT Class.: developmental toxicant classification; for Development Toxicant Classification: Table S2
[5] = system: o/c ratio in H9 embryonic stem cells; conditions: Teratogen Index, o/c ratio; cited from earlier work
[6] = system: SOX17 (endoderm marker) in RUES2-GLR cells; assay: DevTox GLR-Endo assay: decrease in percent SOX17-positive cells (AEID 3094, Sox17_dn); conditions: for AC50 / Emax: Homo sapiens; for Hit Call: Table S2, SOX17-positive cells, cutoff 3*bmad; for HIT−CALL: tcpl plot AEID3094, COFF 20.3; for DevTox ACC: Table S2, percent SOX17-positive cells; for DevTox ACC / DevTox-GLR Endo ACC: 48 h exposure; for DevTox-GLR Endo ACC: activity concentration at cutoff, SOX17-positive cells; for hit call designation (in words): DevTox GLR-Endo prediction against developmental toxicant classification; for ga (winning model): tcpl plot AEID3094, gain parameter of winning curve fit (log concentration, µM axis); for ga (winning model) / tp (winning model): hit calls only; for MAX_MEAN: tcpl plot AEID3094, maximum mean response; for tp (winning model): tcpl plot AEID3094, top of winning curve fit (Hill or gain-loss)
Procedure, shortened: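 Readouts are loss of SOX17-positive fraction and reduced cell number in endoderm-differentiating RUES2-GLR cells after 48 h of chemical exposure. Controls: undifferentiated and differentiated cells, 0.2% DMSO, and 1 µM SB431542; at least four biological replicates.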

[7] = system: BRA (mesoderm marker) in RUES2-GLR cells; assay: DevTox GLR-Endo assay: increase in percent BRA-positive cells (AEID 3096, Bra_up); assay type: cell-based, human; conditions: for HIT−CALL: tcpl plot AEID3096, COFF 0.774; for MAX_MEAN: tcpl plot AEID3096, maximum mean response; for MAX_MED: tcpl plot AEID3096, maximum median response
Description: as §1, §2

[8] = system: H9 human ESC line; conditions: cited from earlier work
[9] = system: SOX17 in H9 human ESC line; conditions: SOX17 half-maximal inhibition concentration; read-out: hPST IC50; cited from earlier work
[10] = DevTox GLR-Endo assay: decrease in total cell count, cytotoxicity (AEID 3098, CellCount_dn); conditions: human, RUES2-GLR cells under directed endoderm differentiation
[11] = tcpl plot AEID3093, maximum mean response, read-out: MAX_MEAN
[12] = tcpl plot AEID3093, maximum median response, read-out: MAX_MED
[13] = chemicals common with quickPredict
[14] = read-out: ga (winning model), tcpl plot AEID3094, gain parameter of winning curve fit (log concentration, µM axis), hit calls only (converted)
[15] = read-out: DevTox % Max Inhibition
[16] = tcpl plot AEID3093, maximum mean response
[17] = tcpl plot AEID3093, maximum median response

Compound | AC50 [1] [µM] | Emax [1] [%] | MAX_MEAN [1] [Percent Activity] | MAX_MED [1] [Percent Activity] | Emax [2, 11] [%] | Emax [2, 12] [%] | HIT−CALL [2] | Emax [3] [%] | Classification [4] | DT Class. [4, 13] | quickPredict TI [5] [µM] | AC50 [6, 14] [µM] | Hit Call [6] | HIT−CALL [6] | Emax [6, 15] [%] | Emax ([6]; read-out: MAX_MEAN) [%] | Emax ([6]; read-out: MAX_MED) [%] | Emax ([6]; read-out: tp (winning model)) [%] | DevTox ACC [6] [µM] | DevTox-GLR Endo ACC [6] [µM] | other results
CCCCc1oc2ccccc2c1C(=O)c1cc(I)c(OCCN(CC)CC)c(I)c1 [Amiodarone] | 11.7 | 1.23 | 2.82 | 2.22 | 6.18 | 3.59 | 0 | 97.1 | Teratogen | Pos | 5.1 | 17 | Positive | 1 | – | – | – | – | – | – | –
Nc1ccn([C@@H]2O[C@H](CO)[C@@H](O)[C@@H]2O)c(=O)n1 [Cytarabine] | 0.582 | 2.27 | 2.89 | 2.91 | 12.2 | 12.7 | 0 | 86.7 | Teratogen | Pos | 0.054 | 0.557 | Positive | 1 | 102 | 102 | 102 | 102 | 0.4557 | 0.46 | effect on cell count (in words) [3]: significant decreases in cell count; Cell Count ACC ([3]; human, 48 h): 0.05231 µM; DevTox-GLR Endo CC ([3]; human, 48 h): 0.05 µM
C[C@@H]1C[C@H]2[C@@H]3CCC4=CC(=O)C=C[C@]4(C)[C@@]3(F)[C@@H](O)C[C@]2(C)[C@@]1(O)C(=O)CO [Dexamethasone] | – | – | 0.622 | 0.482 | – | – | 0 | – | Teratogen | Pos | 37.7 | – | Negative | 1 | – | – | – | – | >200 | – | HIT−CALL [7]: 0; MAX_MEAN [7]: 0.923 Percent Activity; MAX_MED [7]: 0.979 Percent Activity; MAX_MEAN [2, 16]: −0.0942 Percent Activity; MAX_MED [2, 17]: 0.457 Percent Activity; Cell Count ACC [3]: 13.83 µM; DevTox-GLR Endo CC [3]: 13.83 µM; effect on cell count (in words) [3]: significant cell loss that did not impact SOX17-positive populations; Development Toxicant Classification [4]: Positive; hit call designation (in words) [6]: borderline calls; ga (winning model) [6]: −6.88; MAX_MEAN [6]: 20.7 Percent Activity; tp (winning model) [6]: 41.8
CN(C)CCOC(c1ccccc1)c1ccccc1 [Diphenhydramine] | 631 | 2.12 | 2.92 | 1.57 | -0.267 | -1.82 | 0 | 78.9 | – | – | 0.588 | 61.7 | Positive | 1 | – | – | – | 117 | – | – | HIT−CALL [7]: 1; MAX_MEAN [7]: 1.61 Percent Activity; MAX_MED [7]: 1.58 Percent Activity
COc1ccc2c(c1)c(CC(=O)O)c(C)n2C(=O)c1ccc(Cl)cc1 [Indomethacin] | 12.9 | 6.38 | 6.48 | 6.65 | 0.625 | -1.03 | 0 | 92.5 | – | – | 72.7 | 13.2 | Positive | 1 | 101 | 100 | 101 | 101 | 9.385 | 9.38 | Cell Count ACC ([3]; human, 48 h): 8.702 µM; DevTox-GLR Endo CC ([3]; human, 48 h): 8.70 µM
CC[C@H](C)C(=O)O[C@H]1C[C@@H](C)C=C2C=C[C@H](C)[C@H](CC[C@@H]3C[C@@H](O)CC(=O)O3)[C@H]21 [Lovastatin] | 36.3 | 13.5 | 21.1 | 14.8 | -9.76 | -10.1 | 0 | 95.4 | Teratogen | Pos | 5.1 | 11.2 | Positive | 1 | 102 | 102 | 102 | 123 | 0.9345 | 0.93 | Cell Count ACC ([3]; human, 48 h): 0.7145 µM; DevTox-GLR Endo CC ([3]; human, 48 h): 0.71 µM; Development Toxicant Classification [4]: Positive
CCCCC(CC)COC(=O)c1ccccc1C(=O)O (centres unmarked) [MEHP] | – | – | 1.85 | 1.77 | – | – | 0 | – | – | – | 167 | – | Positive | 1 | – | – | – | – | 76.3285 | 76.33 | HIT−CALL [7]: 0; MAX_MEAN [7]: 1.95 Percent Activity; MAX_MED [7]: 1.69 Percent Activity; MAX_MEAN [2, 16]: 6.64 Percent Activity; MAX_MED [2, 17]: 12.4 Percent Activity; Cell Count ACC [3]: 61.5464 µM; DevTox-GLR Endo CC [3]: 61.55 µM; Cell Count % Max Inhibition ([3]; Table S2, cell count relative to DMSO): 76.1511%; DevTox % Max Inhibition ([6]; Table S2, percent SOX17-positive cells relative to DMSO): 67.6802%; ga (winning model) [6]: 2.11; MAX_MEAN [6]: 65.4 Percent Activity; MAX_MED ([6]; tcpl plot AEID3094, maximum median response): 67.7 Percent Activity; tp (winning model) [6]: 89.3
CO[C@H]1/C=C/O[C@@]2(C)Oc3c(C)c(O)c4c(O)c(c(/C=N/N5CCN(C)CC5)c(O)c4c3C2=O)NC(=O)/C(C)=C\C=C\[C@H](C)[C@H](O)[C@@H](C)[C@@H](O)[C@@H](C)[C@H](OC(C)=O)[C@@H]1C [Rifampicin] | – | – | 0.548 | 0.542 | 7.3 | 7.36 | 0 | 92.4 | Teratogen | Pos | 2.46 | 67.6 | Positive | 1 | 101 | 102 | 101 | 108 | 37.8542 | 37.85 | Cell Count ACC ([3]; human, 48 h): 18.1066 µM; DevTox-GLR Endo CC ([3]; human, 48 h): 18.11 µM; Development Toxicant Classification [4]: Positive
[H]/N=C(/NCCCCC)N/N=C/c1c[nH]c2ccc(OC)cc12 [Tegaserod Maleate] | – | – | 2.78 | 2.79 | 6.89 | 6.94 | 0 | 98.8 | Non-Teratogen | – | – | 5.32 | Positive | 1 | 102 | 102 | 102 | 102 | 4.472 | – | HIT−CALL [7]: 1; MAX_MEAN [7]: 3.57 Percent Activity; MAX_MED [7]: 2.57 Percent Activity; hPST TC50 ([8]; cytotoxicity half-maximal concentration): 4.5 µM; hPST TC50 ([8]; hPST cytotoxicity): 4.5 µM; IC50 [9]: 4.6 µM; Cell Count ACC ([3]; Table S2, 48 h exposure): 4.239 µM; CC50 at 48 h [10]: 5.06 µM; Development Toxicant Classification [4]: Negative; DT Class. ([4]; chemicals common with hPST): Neg; hit call designation (in words) [6]: false positive; AC50 ([6]; 48 h, read-out: DevTox-GLR Endo AC50 (µM), SOX17 half-maximal activity concentration, 48 h exposure): 5.32 µM; Emax ([6]; read-out: maximum observed effect level class (% max inhibition)): 80 to 100%
